Legend:
[1] = Dissolution time of 1 gram in distilled water at room temperature; type: physicochemical; settings: 75 RPM
[2] = Chemical stability in aqueous media (conversion to creatinine); type: physicochemical
Experimental: As may be seen, 1 gram of N-acetyl creatine dissolves faster than other creatine derivatives, except creatine ethyl ester HCl, designated Creatine EE Hcl—(High Creatine Conversion) in FIG. 1. However, this shorter dissolution time may be deceiving. […] Instead, Creatine ethyl ester HCl decomposes into creatinine in a matter of 2 to 3 minutes. Creatinine is an excretory byproduct produced from the breakdown of creatine phosphate and offers none of the numerous benefits of creatine. In other words, Creatine ethyl ester HCl is unstable and its rapid conversion to creatinine makes it ineffective in delivering bioavailable creatine to the body.

[3] = Dissolution time of 1 gram in 0.1N HCl (pH 1.2); type: physicochemical; settings: 1.000 Gram in 900 ml 0.1N HCl in Water, pH = 1.2, 73 C., 75 RPM
Solubility in water = type: physicochemical
[4] = test system: muscle strength and weightlifting performance; settings: cited from earlier work
[5] = test system: person with myasthenia gravis; settings: five grams daily, resistance training 3 times per week for 15 weeks; cited from earlier work
myostatin = settings: cited from earlier work
human fibroblasts = settings: cited from earlier work
[6] = 1.000 Gram in 900 ml Distilled Water, creatine types
[7] = 1.000 g in 900 ml Distilled Water, L-leucine versus N-acetyl L-leucine
[8] = creatine supplementation plus resistance training
[9] = versus placebo ingestion during resistance training

With `CN(CC(=O)O)C(=N)N.O=C(O)CC(O)(CC(=O)O)C(=O)O` [Creatine Citrate] the “Time (Minutes) to dissolve” value [1, 6] was 10.10 min.
With `CN(CC(=O)O)C(=N)N.O` [Creatine Monohydrate] the “Time (Minutes) to dissolve” value [1, 6] was 14.42 min.
For `CN(CC(=O)O)C(=N)N.O=[N+]([O-])O` [Creatine Nitrate], the “Time (Minutes) to dissolve” value [1, 6] was 9.12 min.
With `CCOC(=O)CN(C)C(=N)N.Cl` [Creatine ethyl ester HCl] the “Time (Minutes) to dissolve” value [1, 6] was 1.68 min, the “stability in solution (in words)” value [2] was “unstable” and the “Time (Minutes) to dissolve” value [3] was 0.95 min.
With `CN(CC(=O)N[C@@H](CCC(N)=O)C(=O)O)C(=N)N` [Creatyl-L-Glutamine] the “Time (Minutes) to dissolve” value [1, 6] was 25.02 min and the “Time (Minutes) to dissolve” value [3] was 6.33 min.
With `CC(C)C[C@H](NC(=O)CN(C)C(=N)N)C(=O)O` [Creatyl-L-Leucine] the “Time (Minutes) to dissolve” value [1, 6] was 9.05 min and the “Time (Minutes) to dissolve” value [3] was 3.08 min.
For `CC(C)C[C@H](N)C(=O)O` [Leucine, L-leucine], the “Time (Minutes) to dissolve” value [1, 7] was 12.82 min, the “solubility in an aqueous medium (in words)” value (Solubility in water; aqueous medium) was “very low water solubility” and the “solubility of free leucine relative to N-acetyl-Leucine” value (Solubility in water; aqueous medium) was “ten times greater”.
For `CC(=O)N[C@@H](CC(C)C)C(=O)O` [N-Acetyl Leucine, N-acetyl L-leucine], the “Time (Minutes) to dissolve” value [1, 7] was 120.17 min and the “solubility in an aqueous medium (in words)” value (Solubility in water; aqueous medium) was “extremely poor solubility”.
For `CC(=O)NC(=N)N(C)CC(=O)O` [N-acetyl creatine], the “Time (Minutes) to dissolve” value [1, 6] was 3.70 min, the “times more soluble than the parent compound creatine” value (Solubility in water) was 30 times and the “increase of solubility with respect to creatine monohydrate” value (Solubility in water; water) was 30 fold. The solubility in water (Solubility in water; water) was 400 grams/1 liter, the “stability in solution (in words)” value [2] was “remains stable in solution” and the “Time (Minutes) to dissolve” value [3] was 2.17 min.
For `CN(CC(=O)O)C(=N)N` [creatine, 2-(carbamimidoyl-methyl-amino) acetic acid], the “average increase in muscle strength” value [4, 8] is listed as 20%, the “average increase in weightlifting performance (maximal repetitions at a given percent of maximal strength)” value [4, 8] is listed as 26% and the “average increase in muscle strength, greater than following placebo” value [4, 9] is listed as 8%. For the same molecule, the “average increase in weightlifting performance, greater than following placebo” value [4, 9] was 14%, the improved peak strength [5] was “up to 37%” and the “increase in body weight” value [5] was 7%. The “increase in fat free mass” value [5] was 4% and the “myostatin blocked in muscle” value (myostatin) was 60%.
For `CCCCCCCCCCCCOC(=O)CN(C)C(=N)N` [dodecyl creatine ester], the “increase compared with the endogenous creatine content” value (human fibroblasts) is listed as 20 fold.
With Creatine Taurinate the “Time (Minutes) to dissolve” value [1, 6] was 15.85 min and the “Time (Minutes) to dissolve” value [3] was 10.30 min.

From patent US9642825B2, “Bio-available N-acetyl creatine species and compositions thereof” (4141 HOLDINGS, LLC, priority 2014, dated 2017)
